The target of assay [1] is T1, human recombinant serotonin 5-HT2A receptor (Homo sapiens, UniProt P28223).
T1 construct: purchased PerkinElmer Life and Analytical Sciences, USA; host or cells: CHO-K1
Kind of assay: Binding affinity for serotonin 5-HT2A receptor ([3H]Ketanserin). Particulars: CHO-K1 expressed receptor, 1 nM [3H]Ketanserin. As for the experimental part: Receptor binding affinities of the compounds for serotonin receptors were measured by the method described in the literature [Park W K et al., Pharmacol Biochem Behav. 2005, 82(2), 361-372].
For serotonin 5-HT2A binding, an aliquot of human recombinant serotonin 5-HT2A receptor (PerkinElmer Life and Analytical Sciences, USA) expressed in CHO-K1 cells (5 ug/well) and 1 nM [^3H]Ketanserin (PerkinElmer) were used in the presence of mianserin (20 uM) as nonspecific. The reaction mixture was incubated for 60 min at 27 using 50 mM Tris-HCl (pH 7.4) buffer containing 4 mM CaCl2 and 0.1% ascorbic acid, and harvested through filtermate A glass fiber filter (Wallac, Finland) presoaked in 0.5% polyethyleneimine (PEI) by microbeta filtermate-96 harvester (PerkinElmer) to terminate the reaction, and then washed with ice cold 50 mM Tris-HCl buffer solution (pH 7.4). The filter was then covered with MeltiLex, sealed in a sample bag, dried in an oven. The radioactivity retained in the filter was finally counted using MicroBeta Plus (Wallac).
(§1) The binding affinity (IC50) of a compound for the receptor was calculated by computerized nonlinear regression analysis (GraphPad Prism Program, San Diego, USA) using 7-8 varied concentrations of the compound run in duplicate tubes.

The target of assay [2] is T2, human recombinant 5-HT2C receptor (Homo sapiens, UniProt P28335).
T2 construct: purchased PerkinElmer
T2 sequence (P28335 33-458): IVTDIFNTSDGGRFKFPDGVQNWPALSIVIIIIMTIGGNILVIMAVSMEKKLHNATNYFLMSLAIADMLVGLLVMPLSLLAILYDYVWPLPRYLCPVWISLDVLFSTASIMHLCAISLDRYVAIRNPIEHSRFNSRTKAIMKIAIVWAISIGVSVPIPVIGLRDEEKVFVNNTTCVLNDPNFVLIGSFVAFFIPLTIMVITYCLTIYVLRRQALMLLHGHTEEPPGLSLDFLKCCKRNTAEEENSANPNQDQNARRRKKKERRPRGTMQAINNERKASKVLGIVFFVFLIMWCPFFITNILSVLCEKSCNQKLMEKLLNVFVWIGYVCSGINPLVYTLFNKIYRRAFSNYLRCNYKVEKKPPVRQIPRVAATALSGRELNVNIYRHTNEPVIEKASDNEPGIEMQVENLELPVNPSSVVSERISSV
As to the kind of experiment: Binding affinity for serotonin 5-HT2C receptor ([3H]Mesulergine). Particulars: CHO-K1 membranes, 1.3 nM [3H]Mesulergine. As for the experimental part: Receptor binding affinities of the compounds for serotonin receptors were measured by the method described in the literature [Park W K et al., Pharmacol Biochem Behav.
as §1
Nonspecific binding was determined using 100 uM mianserin. The incubations were performed for 60 min at 27, and these were terminated by rapid filtration through filtermate. A glass fiber filter presoaked in 0.5% PEI.

Assay [3] addresses T3, human serotonin transporter (Homo sapiens, UniProt P31645).
T3 construct: purchased PerkinElmer; host or cells: HEK-293
As to the kind of experiment: Binding affinity for serotonin transporter ([3H]Imipramine). Particulars: HEK-293 membranes, 2 nM [3H]Imipramine. As for the experimental part:
For serotonin transporter binding assays, a reaction mixture with a final volume of 0.25 ml was prepared by mixing a test compound, human serotonin transporter membrane expressed in HEK-293 cells (PerkinElmer, 5 ug/well), [^3H]Imipramine (PerkinElmer, 2 nM) and 50 mM Tris-HCl (pH 7.4) buffer containing 120 mM NaCl and 5 mM KCl. The reaction mixture was incubated for 30 min at 27, and harvested through filtermate. A glass fiber filter presoaked in 0.5% PEI with ice cold 50 mM Tris-HCl buffer (pH 7.4) containing 0.9% NaCl.

Here are results for 20 molecules from patent publication US8895558B2, “Arylpiperazine-containing pyrrole 3-carboxamide derivatives for treating depressive disorders” (Green Cross Corporation, priority 2008, dated 2014).

Structures can show the parent of a compound that is named as a salt.

T1 sequence (P28223 whole entry): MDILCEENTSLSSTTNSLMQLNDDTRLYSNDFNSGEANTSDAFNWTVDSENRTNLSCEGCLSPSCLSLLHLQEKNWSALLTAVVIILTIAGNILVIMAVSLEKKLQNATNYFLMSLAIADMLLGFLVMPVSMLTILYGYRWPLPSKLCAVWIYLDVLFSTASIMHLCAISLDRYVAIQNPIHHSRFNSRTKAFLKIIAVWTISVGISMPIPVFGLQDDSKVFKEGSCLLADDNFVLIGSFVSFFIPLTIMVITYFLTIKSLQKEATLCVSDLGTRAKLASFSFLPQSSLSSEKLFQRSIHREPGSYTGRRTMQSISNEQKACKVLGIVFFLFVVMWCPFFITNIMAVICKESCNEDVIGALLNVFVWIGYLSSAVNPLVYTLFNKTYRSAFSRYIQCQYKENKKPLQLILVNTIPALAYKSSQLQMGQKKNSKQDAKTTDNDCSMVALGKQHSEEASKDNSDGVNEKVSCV
T3 sequence (P31645 whole entry): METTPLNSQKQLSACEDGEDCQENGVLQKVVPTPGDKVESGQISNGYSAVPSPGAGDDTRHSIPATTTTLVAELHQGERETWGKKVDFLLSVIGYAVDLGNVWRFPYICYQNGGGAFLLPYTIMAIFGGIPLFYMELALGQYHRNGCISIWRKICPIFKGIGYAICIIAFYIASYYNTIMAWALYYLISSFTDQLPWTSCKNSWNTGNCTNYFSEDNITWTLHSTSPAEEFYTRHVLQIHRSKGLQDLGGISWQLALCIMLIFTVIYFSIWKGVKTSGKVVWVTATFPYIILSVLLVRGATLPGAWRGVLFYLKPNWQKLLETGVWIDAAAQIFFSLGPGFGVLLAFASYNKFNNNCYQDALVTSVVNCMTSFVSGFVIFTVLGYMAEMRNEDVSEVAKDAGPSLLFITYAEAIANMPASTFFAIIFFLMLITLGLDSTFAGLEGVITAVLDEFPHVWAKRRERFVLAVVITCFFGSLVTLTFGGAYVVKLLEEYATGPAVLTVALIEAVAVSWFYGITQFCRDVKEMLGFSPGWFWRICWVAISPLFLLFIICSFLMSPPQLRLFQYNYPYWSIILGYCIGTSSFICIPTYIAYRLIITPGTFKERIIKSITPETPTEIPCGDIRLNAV

Take `CCCn1c(-c2ccccc2)cc(C(=O)NCCCCN2CCN(c3cccc(Cl)c3Cl)CC2)c1C` [Example 34, N-(4-(4-(2,3-dichlorophenyl)piperazin-1-yl)butyl)-2-methyl-5-phenyl-1-propyl-1H-pyrrole-3-carboxamide hydrochloride]: the half-maximal inhibitory concentration (IC50) – broadly, the point on the concentration scale where inhibition reaches its midpoint – in assay [1] was 104 nM; in assay [2] it was 20.9 nM; in assay [3], 76 nM.
The like results for `COc1ccc(-c2cc(C(=O)NCCCN3CCN(c4cccc(Cl)c4Cl)CC3)c(C)[nH]2)cc1` [Example 73, N-(3-(4-(2,3-dichlorophenyl)piperazin-1-yl)propyl)-5-(4-methoxyphenyl)-2-methyl-1H-pyrrole-3-carboxamide hydrochloride] were, in that order, 37 nM, 201 nM and 204 nM.
Regarding `CCn1c(-c2ccccc2)cc(C(=O)NCCCCN2CCN(c3cccc(C)c3C)CC2)c1C` [Example 42, N-(4-(4-(2,3-dimethylphenyl)piperazin-1-yl)butyl)-1-ethyl-2-methyl-5-phenyl-1H-pyrrole-3-carboxamide hydrochloride], the IC50 was determined as 10 nM in assay [1], 17 nM in assay [2] and 65 nM in assay [3].
On to `CCn1c(-c2ccccc2)cc(C(=O)NCCCN2CCN(c3cccc(C)c3C)CC2)c1C` [Example 5, N-(3-(4-(2,3-dimethylphenyl)piperazin-1-yl)propyl)-1-ethyl-2-methyl-5-phenyl-1H-pyrrole-3-carboxamide], for which the half-inhibitory concentration (IC50) in assay [1] worked out at 75 nM; in assay [2] it was 139 nM; in assay [3], 35.9 nM.
The matching figures for `CCn1c(-c2ccc(Cl)cc2)cc(C(=O)NCCCN2CCN(c3cccc(C)c3C)CC2)c1C` [Example 63, 5-(4-chlorophenyl)-N-(3-(4-(2,3-dimethylphenyl)piperazin-1-yl)propyl)-1-ethyl-2-methyl-1H-pyrrole-3-carboxamide hydrochloride]: 151 nM, 39 nM and 93 nM.
The like results for `CCCn1c(-c2ccc(Cl)cc2)cc(C(=O)NCCCN2CCN(c3cccc(C)c3C)CC2)c1C` [Example 65, 5-(4-chlorophenyl)-N-(3-(4-(2,3-dimethylphenyl)piperazin-1-yl)propyl)-2-methyl-1-propyl-1H-pyrrole-3-carboxamide hydrochloride] were, in that order, 192 nM, 26 nM and 131 nM.
For `Cc1ccc2cccc(N3CCN(CCNC(=O)c4cc(C(C)(C)C)n(C)c4C)CC3)c2n1` [Example 188, 5-tert-butyl-1,2-dimethyl-N-(2-(4-(2-methylquinolin-8-yl)piperazin-1-yl)ethyl)-1H-pyrrole-3-carboxamide], the results for the IC50 in assay [1] and in assay [2] were 1480 nM and 1500 nM, respectively.
For `CCCn1c(-c2ccccc2)cc(C(=O)NCCCN2CCN(c3cccc(Cl)c3)CC2)c1C` [Example 6, N-(3-(4-(3-chlorophenyl)piperazin-1-yl)propyl)-2-methyl-5-phenyl-1-propyl-1H-pyrrole-3-carboxamide], the IC50 is 191 nM in assay [1], 273 nM in assay [2] and 93 nM in assay [3].
`CCCn1c(-c2ccccn2)cc(C(=O)NCCN2CCN(c3cccc(Cl)c3Cl)CC2)c1C` [Example 96, N-(2-(4-(2,3-dichlorophenyl)piperazin-1-yl)ethyl)-2-methyl-1-propyl-5-(pyridin-2-yl)-1H-pyrrole-3-carboxamide dihydrochloride]: the figures for the IC50 in assay [1], in assay [2] and in assay [3] were 410 nM, 619 nM and 381 nM, respectively.
The matching figures for `CCCn1c(-c2ccccc2)cc(C(=O)NCCCN2CCN(c3cccc(OC)c3OC)CC2)c1C` [Example 159, N-(3-(4-(2,3-dimethoxyphenyl)piperazin-1-yl)propyl)-2-methyl-5-phenyl-1-propyl-1H-pyrrole-3-carboxamide]: 874 nM, 977 nM and 1980 nM.
As to `Cc1c(C(=O)NCCN2CCN(c3cccc(Cl)c3F)CC2)cc(C(C)(C)C)n1C` [Example 186, 5-tert-butyl-N-(2-(4-(3-chloro-2-fluorophenyl)piperazin-1-yl)ethyl)-1,2-dimethyl-1H-pyrrole-3-carboxamide], the results for the concentration for half-maximal inhibition (IC50) in assay [1] and in assay [2] were 121 nM and 293 nM, respectively.
Consider `Cc1cccc(N2CCN(CCNC(=O)c3cc(C(C)(C)C)n(C)c3C)CC2)c1C` [Example 189, 5-tert-butyl-N-(2-(4-(2,3-dimethylphenyl)piperazin-1-yl)ethyl)-1,2-dimethyl-1H-pyrrole-3-carboxamide], for which the half-inhibitory concentration (IC50) in assay [2] is 227 nM.
In the case of `Cc1[nH]c(-c2ccccc2)cc1C(=O)NCCN1CCN(c2cccc(Cl)c2Cl)CC1` [Example 38, N-(2-(4-(2,3-dichlorophenyl)piperazin-1-yl)ethyl)-2-methyl-5-phenyl-1H-pyrrole-3-carboxamide hydrochloride], the IC50 came to 40 nM in assay [1], 37 nM in assay [2] and 87 nM in assay [3].
Take `Cc1[nH]c(-c2ccc(Cl)cc2)cc1C(=O)NCCN1CCN(c2cccc(Cl)c2Cl)CC1` [Example 67, 5-(4-chlorophenyl)-N-(2-(4-(2,3-dichlorophenyl)piperazin-1-ypethyl)-2-methyl-1H-pyrrole-3-carboxamide hydrochloride]: the results for the IC50 in assay [1], in assay [2] and in assay [3] were 100 nM, 23 nM and 233 nM, respectively.
In the case of `CCn1c(-c2ccccc2)cc(C(=O)NCCCN2CCN(c3cccc(Cl)c3)CC2)c1C` [Example 4, N-(3-(4-(3-chlorophenyl)piperazin-1-yl)propyl)-1-ethyl-2-methyl-5-phenyl-1H-pyrrole-3-carboxamide], the IC50 in assay [1] worked out at 92 nM; in assay [2] it was 192 nM; in assay [3], 25.8 nM.
In the case of `Cc1ccc2cccc(N3CCN(CCNC(=O)c4cc(-c5ccccc5)n(C)c4C)CC3)c2n1` [Example 185, 1,2-dimethyl-N-(2-(4-(2-methylquinolin-8-yl)piperazin-1-yl)ethyl)-5-phenyl-1H-pyrrole-3-carboxamide], the results for the IC50 in assay [1] and in assay [2] were 761 nM and 554 nM, respectively.
The matching figures for `Cc1c(Cl)cccc1N1CCN(CCNC(=O)c2cc(-c3ccccc3)n(C)c2C)CC1` [Example 184, N-(2-(4-(3-chloro-2-methylphenyl)piperazin-1-yl)ethyl)-1,2-dimethyl-5-phenyl-1H-pyrrole-3-carboxamide]: 152 nM and 233 nM.
The matching figures for `Cc1c(Cl)cccc1N1CCN(CCNC(=O)c2cc(C(C)(C)C)n(C)c2C)CC1` [Example 187, 5-tert-butyl-N-(2-(4-(3-chloro-2-methylphenyl)piperazin-1-yl)ethyl)-1,2-dimethyl-1H-pyrrole-3-carboxamide]: 54 nM and 210 nM.
Consider `CCn1c(C(C)(C)C)cc(C(=O)NCCCN2CCN(c3cccc(C)c3C)CC2)c1C` [Example 190, 5-tert-butyl-N-(3-(4-(2,3-dimethylphenyl)piperazin-1-yl)propyl)-1-ethyl-2-methyl-1H-pyrrole-3-carboxamide], for which the results for the IC50 in assay [1] and in assay [2] were 386 nM and 1140 nM, respectively.
For the molecule `Cc1c(C(=O)NCCN2CCN(c3cccc(Cl)c3Cl)CC2)cc(C(C)(C)C)n1C` [Example 169, 5-tert-butyl-N-(2-(4-(2,3-dichlorophenyl)piperazin-1-yl)ethyl)-1,2-dimethyl-1H-pyrrole-3-carboxamide], the 50% inhibitory concentration (IC50) in assay [1] was found to be 57 nM.
